Active and inactive are the calls of the source. The calls are words filed in the database; no cut-off is given here.
Legend:
[1] = biological target: Serine/threonine-protein kinase pim-3 (Homo sapiens) (UniProt Q86V86); conditions: Compound concentration 1000.0 nM
[2] = biological target: Muscarinic acetylcholine receptor M3 (Homo sapiens) (UniProt P20309); conditions: Compound concentration 10.0 uM
[3] = biological target: Muscarinic acetylcholine receptor M5 (Homo sapiens) (UniProt P08912); conditions: Compound concentration 10.0 uM
[4] = biological target: Receptor-type tyrosine-protein kinase FLT3 (Homo sapiens) (UniProt P36888); conditions: Compound concentration 1000.0 nM
[5] = biological target: Tyrosine-protein kinase JAK2 (Homo sapiens) (UniProt O60674); conditions: Compound concentration 1000.0 nM
Sequence of Tyrosine-protein kinase JAK2 (Homo sapiens) (O60674 whole entry): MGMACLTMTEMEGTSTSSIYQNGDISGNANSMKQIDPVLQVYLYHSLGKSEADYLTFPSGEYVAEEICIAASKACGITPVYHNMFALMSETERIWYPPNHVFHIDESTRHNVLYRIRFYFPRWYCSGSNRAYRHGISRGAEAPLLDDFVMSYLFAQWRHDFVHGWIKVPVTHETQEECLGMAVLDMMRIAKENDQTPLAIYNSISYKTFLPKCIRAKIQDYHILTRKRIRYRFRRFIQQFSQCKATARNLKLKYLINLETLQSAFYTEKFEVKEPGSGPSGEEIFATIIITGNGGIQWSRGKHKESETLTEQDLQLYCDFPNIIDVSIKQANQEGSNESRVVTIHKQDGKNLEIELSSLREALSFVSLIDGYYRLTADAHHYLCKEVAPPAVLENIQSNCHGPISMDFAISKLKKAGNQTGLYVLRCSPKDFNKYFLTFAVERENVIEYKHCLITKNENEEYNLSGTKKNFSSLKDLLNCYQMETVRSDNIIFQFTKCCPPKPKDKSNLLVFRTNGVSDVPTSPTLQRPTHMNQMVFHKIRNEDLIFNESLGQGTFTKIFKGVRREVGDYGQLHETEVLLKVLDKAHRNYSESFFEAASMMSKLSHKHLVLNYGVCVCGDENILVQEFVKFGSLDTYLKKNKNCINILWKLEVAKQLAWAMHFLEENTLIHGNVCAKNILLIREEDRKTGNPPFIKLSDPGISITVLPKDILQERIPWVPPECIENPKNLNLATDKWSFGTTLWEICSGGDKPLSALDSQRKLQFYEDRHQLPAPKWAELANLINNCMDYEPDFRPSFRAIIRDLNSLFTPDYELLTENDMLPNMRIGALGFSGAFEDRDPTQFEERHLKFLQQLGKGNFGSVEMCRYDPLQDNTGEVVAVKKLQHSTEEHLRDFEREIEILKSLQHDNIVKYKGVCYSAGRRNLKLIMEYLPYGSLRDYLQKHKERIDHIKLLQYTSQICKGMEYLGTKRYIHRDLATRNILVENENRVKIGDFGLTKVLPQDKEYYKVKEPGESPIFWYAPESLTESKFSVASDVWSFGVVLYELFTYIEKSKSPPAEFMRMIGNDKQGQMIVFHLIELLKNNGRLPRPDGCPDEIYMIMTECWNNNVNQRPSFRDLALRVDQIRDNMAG

[6] = biological target: Mitogen-activated protein kinase kinase kinase kinase 1 (Homo sapiens) (UniProt Q92918); conditions: Compound concentration 1000.0 nM
[7] = biological target: Glutamate receptor ionotropic, NMDA 2A (Rattus norvegicus) (UniProt Q00959); conditions: Compound concentration 10.0 uM
[8] = biological target: Serine/threonine-protein kinase Nek7 (Homo sapiens) (UniProt Q8TDX7); conditions: Compound concentration 1000.0 nM
[9] = biological target: Pyroglutamylated RF-amide peptide receptor (Homo sapiens) (UniProt Q96P65); test: GPR103 Eurofins-Panlabs selectivity data (BI); conditions: Compound concentration 10.0 uM
[10] = biological target: Beta-2 adrenergic receptor (Homo sapiens) (UniProt P07550); conditions: Compound concentration 10.0 uM
[11] = biological target: P2X purinoceptor (Oryctolagus cuniculus) (UniProt G1U3D6); test: P2X/RB Eurofins-Panlabs selectivity data (BI); conditions: Compound concentration 10.0 uM
[12] = biological target: Ephrin type-B receptor 4 (Homo sapiens) (UniProt P54760); conditions: Compound concentration 1000.0 nM
[13] = biological target: B1 bradykinin receptor (Homo sapiens) (UniProt P46663); test: B1/H Eurofins-Panlabs selectivity data (BI); conditions: Compound concentration 10.0 uM
[14] = biological target: Serine/threonine-protein kinase ULK2 (Homo sapiens) (UniProt Q8IYT8); conditions: Compound concentration 1000.0 nM
Sequence of Serine/threonine-protein kinase ULK2 (Homo sapiens) (Q8IYT8 whole entry, canonical isoform): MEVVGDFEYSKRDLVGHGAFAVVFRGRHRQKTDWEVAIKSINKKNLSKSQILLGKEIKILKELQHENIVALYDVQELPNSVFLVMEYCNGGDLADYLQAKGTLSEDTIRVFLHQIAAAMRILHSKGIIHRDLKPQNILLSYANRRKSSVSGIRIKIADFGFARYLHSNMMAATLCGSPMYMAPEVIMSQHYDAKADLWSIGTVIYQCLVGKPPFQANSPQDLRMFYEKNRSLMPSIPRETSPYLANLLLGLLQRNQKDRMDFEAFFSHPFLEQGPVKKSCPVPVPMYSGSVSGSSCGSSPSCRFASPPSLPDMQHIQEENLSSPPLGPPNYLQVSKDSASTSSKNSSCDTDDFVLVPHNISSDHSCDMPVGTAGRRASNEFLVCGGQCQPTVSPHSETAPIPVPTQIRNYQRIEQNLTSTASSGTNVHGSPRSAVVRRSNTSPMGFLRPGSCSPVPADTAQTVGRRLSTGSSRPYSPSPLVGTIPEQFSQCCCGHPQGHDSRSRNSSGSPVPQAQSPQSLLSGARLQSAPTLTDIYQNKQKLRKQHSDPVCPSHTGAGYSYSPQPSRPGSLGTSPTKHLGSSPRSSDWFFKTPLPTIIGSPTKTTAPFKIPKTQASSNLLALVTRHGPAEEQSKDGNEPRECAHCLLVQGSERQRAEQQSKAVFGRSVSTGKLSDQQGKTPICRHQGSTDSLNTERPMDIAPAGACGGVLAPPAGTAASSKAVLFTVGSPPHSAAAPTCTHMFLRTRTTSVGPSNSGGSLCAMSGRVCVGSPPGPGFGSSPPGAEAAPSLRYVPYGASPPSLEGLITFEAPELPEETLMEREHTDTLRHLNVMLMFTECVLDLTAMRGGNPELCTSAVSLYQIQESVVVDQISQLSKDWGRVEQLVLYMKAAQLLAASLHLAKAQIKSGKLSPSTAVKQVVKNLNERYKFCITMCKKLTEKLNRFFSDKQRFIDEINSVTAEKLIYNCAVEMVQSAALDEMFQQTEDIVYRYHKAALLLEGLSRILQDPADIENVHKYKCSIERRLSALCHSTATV

[15] = biological target: ATP-sensitive inward rectifier potassium channel 1 isoform X1 (Mesocricetus auratus) (UniProt A0A1U8CU73); conditions: Compound concentration 10.0 uM
[16] = biological target: Sodium channel alpha subunit (site 2) (Homo sapiens, UniProt P35498+P35499+Q01118+Q14524+Q15858+Q99250+Q9NY46+Q9UI33+Q9UQD0+Q9Y5Y9); test: NA+/SITE2AG Eurofins-Panlabs selectivity data (BI); type: protein assay, Cavia porcellus; design: mode of action antagonist; conditions: guinea pig; compound concentration 30 uM; read-out: % Ctrl
[17] = biological target: NUAK family SNF1-like kinase 2 (Homo sapiens) (UniProt Q9H093); conditions: Compound concentration 1000.0 nM
Sequence of NUAK family SNF1-like kinase 2 (Homo sapiens) (Q9H093 whole entry): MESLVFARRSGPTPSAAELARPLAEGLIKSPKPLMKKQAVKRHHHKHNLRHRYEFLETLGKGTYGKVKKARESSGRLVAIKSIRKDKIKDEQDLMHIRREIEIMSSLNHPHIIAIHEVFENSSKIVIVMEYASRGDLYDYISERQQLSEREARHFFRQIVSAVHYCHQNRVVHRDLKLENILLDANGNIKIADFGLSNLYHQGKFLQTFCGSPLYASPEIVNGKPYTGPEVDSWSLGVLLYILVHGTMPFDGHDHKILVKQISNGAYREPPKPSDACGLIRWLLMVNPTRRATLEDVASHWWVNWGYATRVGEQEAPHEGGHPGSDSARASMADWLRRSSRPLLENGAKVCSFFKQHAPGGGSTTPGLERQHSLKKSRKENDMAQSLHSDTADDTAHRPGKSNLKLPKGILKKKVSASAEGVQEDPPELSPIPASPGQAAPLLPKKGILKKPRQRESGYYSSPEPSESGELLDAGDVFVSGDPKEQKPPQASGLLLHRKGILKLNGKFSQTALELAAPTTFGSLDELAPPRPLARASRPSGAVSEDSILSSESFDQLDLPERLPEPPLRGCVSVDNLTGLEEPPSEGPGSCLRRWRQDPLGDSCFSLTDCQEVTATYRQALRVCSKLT

[18] = biological target: Ephrin type-A receptor 8 (Homo sapiens) (UniProt P29322); conditions: Compound concentration 1000.0 nM
[19] = Human platelet swelling inhibition (hPSA) assay
[20] = biological target: Sodium-dependent noradrenaline transporter (Homo sapiens) (UniProt P23975); test: NETRANS/H Eurofins-Panlabs selectivity data (BI); conditions: Compound concentration 10.0 uM
[21] = biological target: Acetylcholine receptor subunit alpha (Homo sapiens) (UniProt P02708); test: NACH/H Eurofins-Panlabs selectivity data (BI); conditions: Compound concentration 10.0 uM
[22] = biological target: T1, 5-hydroxytryptamine receptor 3A (Homo sapiens) (UniProt P46098); test: 5HT3/HU Eurofins-Panlabs selectivity data (BI); conditions: Compound concentration 10.0 uM
T1 sequence (whole entry): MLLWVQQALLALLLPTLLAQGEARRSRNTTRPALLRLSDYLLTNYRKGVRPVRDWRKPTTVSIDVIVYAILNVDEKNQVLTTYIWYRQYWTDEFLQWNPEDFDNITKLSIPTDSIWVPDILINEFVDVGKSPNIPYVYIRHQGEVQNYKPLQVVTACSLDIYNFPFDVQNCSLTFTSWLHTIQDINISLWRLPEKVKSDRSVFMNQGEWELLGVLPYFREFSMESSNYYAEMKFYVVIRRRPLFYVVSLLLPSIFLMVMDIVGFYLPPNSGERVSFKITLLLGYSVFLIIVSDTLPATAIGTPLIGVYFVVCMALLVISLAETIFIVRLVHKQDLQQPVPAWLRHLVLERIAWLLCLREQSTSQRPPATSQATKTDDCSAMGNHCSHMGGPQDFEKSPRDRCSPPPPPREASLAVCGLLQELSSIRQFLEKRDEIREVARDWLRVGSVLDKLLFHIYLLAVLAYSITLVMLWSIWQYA

[23] = biological target: Cyclin-dependent kinase 4 (Homo sapiens) (UniProt P11802); conditions: Compound concentration 1000.0 nM
Sequence of Cyclin-dependent kinase 4 (Homo sapiens) (P11802 whole entry): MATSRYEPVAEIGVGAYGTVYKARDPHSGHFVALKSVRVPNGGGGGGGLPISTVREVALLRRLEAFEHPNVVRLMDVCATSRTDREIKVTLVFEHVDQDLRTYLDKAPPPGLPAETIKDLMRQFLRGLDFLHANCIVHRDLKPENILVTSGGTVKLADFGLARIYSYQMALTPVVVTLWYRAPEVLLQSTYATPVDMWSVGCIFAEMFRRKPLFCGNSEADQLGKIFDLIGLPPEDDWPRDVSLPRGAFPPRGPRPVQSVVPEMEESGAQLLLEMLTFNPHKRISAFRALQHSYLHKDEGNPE

[24] = biological target: 5-hydroxytryptamine receptor 1E (Homo sapiens) (UniProt P28566); conditions: Compound concentration 10.0 uM
[25] = Rat platelet swelling inhibition (rPSA) assay
[26] = biological target: Histamine H3 receptor (Homo sapiens) (UniProt Q9Y5N1); test: H3/H Eurofins-Panlabs selectivity data (BI); conditions: Compound concentration 10.0 uM
[27] = biological target: Kappa-type opioid receptor (Homo sapiens) (UniProt P41145); test: KAPPA/HU Eurofins-Panlabs selectivity data (BI); conditions: Compound concentration 10.0 uM
[28] = biological target: Adenosine receptor A2a (Homo sapiens) (UniProt P29274); test: A2A/HU Eurofins-Panlabs selectivity data (BI); conditions: Compound concentration 10.0 uM
[29] = biological target: Serine/threonine-protein kinase 32C (Homo sapiens) (UniProt Q86UX6); conditions: Compound concentration 1000.0 nM
Sequence of Serine/threonine-protein kinase 32C (Homo sapiens) (Q86UX6 whole entry): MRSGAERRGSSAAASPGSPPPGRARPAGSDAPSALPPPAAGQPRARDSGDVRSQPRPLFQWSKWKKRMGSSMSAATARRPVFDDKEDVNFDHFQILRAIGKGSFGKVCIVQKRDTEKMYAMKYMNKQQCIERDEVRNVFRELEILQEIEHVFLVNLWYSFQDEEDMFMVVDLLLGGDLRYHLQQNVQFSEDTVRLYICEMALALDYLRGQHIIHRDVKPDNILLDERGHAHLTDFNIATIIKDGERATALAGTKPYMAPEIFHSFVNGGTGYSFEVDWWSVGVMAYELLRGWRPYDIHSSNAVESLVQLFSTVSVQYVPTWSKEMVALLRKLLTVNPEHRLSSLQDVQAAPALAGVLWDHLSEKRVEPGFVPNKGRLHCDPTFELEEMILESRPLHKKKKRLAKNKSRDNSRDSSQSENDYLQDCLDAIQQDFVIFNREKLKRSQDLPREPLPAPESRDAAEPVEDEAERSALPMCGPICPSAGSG

[30] = biological target: Neuropeptide Y receptor type 1 (Homo sapiens) (UniProt P25929); test: Y1/HU Eurofins-Panlabs selectivity data (BI); conditions: Compound concentration 10.0 uM
[31] = biological target: Tyrosine-protein kinase FRK (Homo sapiens) (UniProt P42685); conditions: Compound concentration 1000.0 nM
Sequence of Tyrosine-protein kinase FRK (Homo sapiens) (P42685 whole entry): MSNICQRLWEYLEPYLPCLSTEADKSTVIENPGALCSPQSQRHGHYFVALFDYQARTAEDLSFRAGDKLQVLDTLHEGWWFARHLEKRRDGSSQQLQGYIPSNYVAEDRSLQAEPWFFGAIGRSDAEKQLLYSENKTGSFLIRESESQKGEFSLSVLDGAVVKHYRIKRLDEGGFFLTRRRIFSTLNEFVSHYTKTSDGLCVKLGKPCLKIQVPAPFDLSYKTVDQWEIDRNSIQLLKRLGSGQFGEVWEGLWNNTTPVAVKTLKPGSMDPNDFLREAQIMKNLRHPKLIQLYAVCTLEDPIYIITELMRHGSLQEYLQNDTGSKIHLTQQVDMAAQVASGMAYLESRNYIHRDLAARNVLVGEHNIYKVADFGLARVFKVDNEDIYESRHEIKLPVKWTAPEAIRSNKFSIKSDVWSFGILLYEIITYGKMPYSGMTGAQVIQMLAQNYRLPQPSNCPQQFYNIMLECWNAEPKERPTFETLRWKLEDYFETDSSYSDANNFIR

[32] = biological target: Mu-type opioid receptor (Homo sapiens) (UniProt P35372); conditions: Compound concentration 10.0 uM
[33] = biological target: Mitogen-activated protein kinase kinase kinase 12 (Homo sapiens) (UniProt Q12852); conditions: Compound concentration 1000.0 nM
Sequence of Mitogen-activated protein kinase kinase kinase 12 (Homo sapiens) (Q12852 whole entry): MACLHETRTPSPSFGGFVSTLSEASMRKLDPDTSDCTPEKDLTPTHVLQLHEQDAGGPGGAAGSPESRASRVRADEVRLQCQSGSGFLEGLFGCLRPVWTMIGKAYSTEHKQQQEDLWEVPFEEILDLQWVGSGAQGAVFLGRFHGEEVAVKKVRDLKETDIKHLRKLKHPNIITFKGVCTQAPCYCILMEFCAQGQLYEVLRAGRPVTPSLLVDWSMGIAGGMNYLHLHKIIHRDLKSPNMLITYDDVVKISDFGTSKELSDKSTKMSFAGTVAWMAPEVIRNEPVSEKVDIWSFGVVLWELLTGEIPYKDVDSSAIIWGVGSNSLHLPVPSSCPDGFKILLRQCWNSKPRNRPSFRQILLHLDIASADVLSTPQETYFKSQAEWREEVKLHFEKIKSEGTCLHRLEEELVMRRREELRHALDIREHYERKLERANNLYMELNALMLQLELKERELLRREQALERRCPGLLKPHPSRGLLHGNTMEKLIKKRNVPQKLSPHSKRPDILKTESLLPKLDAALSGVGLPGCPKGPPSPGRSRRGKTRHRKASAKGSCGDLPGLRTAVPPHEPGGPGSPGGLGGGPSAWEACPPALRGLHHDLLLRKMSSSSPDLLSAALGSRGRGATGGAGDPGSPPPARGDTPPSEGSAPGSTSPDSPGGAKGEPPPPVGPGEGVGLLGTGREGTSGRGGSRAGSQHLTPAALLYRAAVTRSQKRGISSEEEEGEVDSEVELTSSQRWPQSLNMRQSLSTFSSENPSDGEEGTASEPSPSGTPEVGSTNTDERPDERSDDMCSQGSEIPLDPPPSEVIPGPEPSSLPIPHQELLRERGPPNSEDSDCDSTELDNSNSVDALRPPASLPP

[34] = biological target: Glutamate receptor ionotropic, NMDA 1 (Rattus norvegicus) (UniProt P35439); test: NMDAGLSI/RA Eurofins-Panlabs selectivity data (BI); conditions: Compound concentration 10.0 uM
[35] = biological target: Mitogen-activated protein kinase 11 (Homo sapiens) (UniProt Q15759); conditions: Compound concentration 1000.0 nM
[36] = biological target: Sigma non-opioid intracellular receptor 1 (Homo sapiens) (UniProt Q99720); conditions: Compound concentration 10.0 uM
[37] = biological target: D(1A) dopamine receptor (Homo sapiens) (UniProt P21728); conditions: Compound concentration 10.0 uM
[38] = biological target: MAP/microtubule affinity-regulating kinase 3 (Homo sapiens) (UniProt P27448); conditions: Compound concentration 1000.0 nM
[39] = biological target: Histamine H2 receptor (Homo sapiens) (UniProt P25021); conditions: Compound concentration 10.0 uM

SMILES	residual activity [1] [%]	inhibition [3] [%]	residual activity [4] [%]	residual activity [5] [%]	residual activity [6] [%]	residual activity [8] [%]	residual activity [12] [%]	residual activity [14] [%]	residual activity [17] [%]	residual activity [18] [%]	residual activity [23] [%]	residual activity [29] [%]	residual activity [31] [%]	inhibition [32] [%]	residual activity [33] [%]	other results
CC(=O)N1CCC(c2ccc(C(=O)NC(=N)N)cc2C(F)(F)F)CC1 [BI 9627]	100	-8.36	100	100	100	100	100	100	100	100	97	100	100	8.98	100	inhibition [2]: 12.1%; residual activity [7]: 96%; residual activity [9]: 92%; inhibition [10]: -9.75%; residual activity [11]: 98%; residual activity [13]: 97%; residual activity [15]: 96%; activity at 30 µM [16]: 100% (not active); IC50 [19]: 31 nM (active); residual activity [20]: 91%; residual activity [21]: 102%; residual activity [22]: 98%; inhibition [24]: -9.59%; IC50 [25]: 138 nM (active); residual activity [26]: 109%; residual activity [27]: 74%; residual activity [28]: 86%; residual activity [30]: 94%; residual activity [34]: 109%
CC(=O)N1CCC(c2ccc(C(=O)NC3=NCCN3)cc2C(F)(F)F)CC1 [BI 0054]	100	14.9	100	100	100	100	100	82	90	93	94	100	97	-2.53	100	residual activity [35]: 98%; inhibition [36]: -8.45%; inhibition [37]: 4.8%; residual activity [38]: 100%; inhibition [39]: -9.37%

Source: ChEMBL document CHEMBL4507279, “Data for DCP probe BI-9627” (2021)
